Patent US20140066410A1, “INHIBITORS OF BROMODOMAINS AS MODULATORS OF GENE EXPRESSION” (ICAHN SCHOOL OF MEDICINE AT MOUNT SINAI, priority 2011, published 2014)
“Also recorded” adds a separate entry of the source.

Assays:
cardiomyocytes = experiment: TUNEL apoptosis assay in primary neonatal rat cardiomyocytes; type: cell-based
Procedure: The ability of ischemin to inhibit apoptosis in cardiomyocytes under DNA damage stress was evaluated. Primary neonatal rat cardiomyocytes were isolated and maintained in culture, then, treated with doxorubicin for 24 hours to induce DNA damage in the presence or absence of ischemin. The DNA damage induced by apoptosis was analyzed by the TUNEL (terminal deoxynucleotidyl transferase dUTP nick and end labeling) assay, in which a terminal deoxynucleotidyl transferase was used to identify 3′-OH of DNA generated by DNA fragmentation resulting from apoptosis, and then labels it with biotinylated dUTP. The latter was then detected with avidin-conjugated FITC for specific staining. Neonatal rat ventricular myocytes (NRVMs) were isolated by enzymatic dissociation of cardiac ventricle from 1-to-2-day-old Sprague-Dawley pups using the Worthington neonatal cardiomyocyte isolation system (Worthington). Briefly, the pups were anesthetized and their hearts were excised. The ventricular tissues were minced in ice cold HBSS and then digested with trypsin overnight at 4° C. followed by collagenase treatment for 45 min at 37° C. […] After treatment with compounds overnight and then doxorubicin for 24 hours, the intensities of luminecnce were read. […]

CBP/p300 = experiment: Fluorescence-based lysine acetyltransferase assay with histone H3 peptide substrate; type: biochemical; conditions: data not shown
Description: (§1) The latter argues that ATM is active in presence of ischemin, which is consistent with our analysis using Western blots (FIG. 2B).

U20S cells = experiment: BRDU incorporation / cell cycle analysis; type: cell-based
Procedure: BRDU incorporation assay for cell cycle evaluation was performed in 96 well plates using calorimetric based kit from Calbiochem (Cat# QiA58). Hundred microliter of 1×10^5/ml cells were plated in DMEM media (Mediatech) with 10% fetal bovine serum (FBS). After 12 hours cells were treated with compounds ischemin and MS 119 (50 μM) with or without doxorubicin treatment (5 μM). The controls were DMSO and untreated cells. BRDU was added for 24 hours treatment. After 24 hours cells were fixed and treated with anti-BRDU antibody. After washings, the wells were incubated with peroxidase. After final wash, the color was developed using TMB as substrate and the reaction was stopped with stop solution and optical density was estimated at 450 nm.
DNA damage induced by doxorubicin leads to p53 stimulated cellular responses including cell cycle arrest, damage repair, and apoptosis. To determine the effect of ischemin on dividing U20S cells, U20S cells were treated with 5-bromo-2-deoxyuridine (BRDU) and the incorporated BRDU during in DNA synthesis was measured using an ELISA assay.

CBP BRD = CBP BRD (Homo sapiens, UniProt Q92793); experiment: Bromodomain binding affinity (tryptophan fluorescence binding assay); conditions: over PCAF, BRD41, BAZ1B and BAZ2B
Chain of CBP BRD (Q92793 1085-1192 limits assumed): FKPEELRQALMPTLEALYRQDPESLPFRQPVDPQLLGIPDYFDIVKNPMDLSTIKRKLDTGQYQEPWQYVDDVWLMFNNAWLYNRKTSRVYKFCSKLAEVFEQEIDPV
Procedure: Monitoring change of intrinsic tryptophan fluorescence of a protein induced by ligand binding can be used to determine ligand binding affinity (KD). This assay was used to assess ligand binding to the CBP BRD and ischemin binding to the BRDs from other transcription proteins as follows. The chemical ligands were prepared at 500-850 μM in the PBS buffer. Their serial dilutions by a factor of 1.5 in a 384-wells black plate were carried out using a Tecan EVO200 liquid handler down to a concentration of 0.5 nM. Protein was added to the compounds to a final concentration in each well of 5 μM. Tryptophan fluorescence of the protein was measured (with excitation set at 280 nm, emission at 350 nm) on a Tecan Safire2 reader. Inner filter correction was introduced to take into account the possible intrinsic fluorescence of the compound. […] KD was calculated based on the curve fitting.

p53 [1] = experiment: Immunoblot of doxorubicin-treated primary neonatal rat cardiomyocytes; type: cell-based
Description: FIG. 4. Ischemin functions a cellular protective agent against myocardial ischemic stress. (A) TUNEL assay showing ischemin inhibition of doxorubicin-induced apoptosis in rat neonatal cardiomyocytes. (B) Evaluation of ischemin effects in U20S cells and cardiomyocytes. The immunoblots show down-regulation of doxorubicin-induced activated p53 in both cell types in the presence of ischemin, while levels of H2XS139p remained the same. (C) Inhibition of doxorubicin-induced caspase 3/7 activation in cardiomyocytes by ischemin.
as §1

p53 [2] = experiment: Western blot of doxorubicin-treated U20S cells; type: cell-based
Procedure: U20S cells were harvested cells and lysed in lysis buffer (20 mM Tris (pH 8.0), 150 mM NaCl, 1 mM EGTA, 1% Triton X-100, and 50 mM NaF) containing protease inhibitor cocktail (Sigma). The cells were sonicated and spun down at 14,000 rpm for 30 min at 4° C. After protein estimation, 30-50 micrograms of lysates were subjected to SDS-PAGE, transferred onto nitrocellulose membranes, blocked with 5% milk/PBS and blotted with a primary antibody. Horse radish peroxidase-labeled secondary antibodies (goat anti-Mouse or anti-Rabbit) were added for 60 min at room temperature, and the blots were washed with TBS (20 mM Tris, 150 mM Nacl, and 0.05% tween −20) and subjected to autoradiography after development of reaction by ECL (GE health care).
The biochemical effects of ischemin on p53 stability and function as transcription factor was examined. U20S cells were incubated in the presence of doxorubicin with or without ischemin at concentration of 50 or 100 μM for 24 hours. Subsequently, cellular proteins were subjected to western blot analysis (as described above).
As a transcription factor, p53 ability to activate gene expression is also dependent upon chromatin modifications. Since CBP acetylates both histones and p53, the possible changes of epigenetic marks on p53 and global histones in presence of ischemin was evaluated.

[3] = ischemin 50 or 100 μM, 24 hours, U20S cells
[4] = nuclear extracts from U20S cells

In the case of `Cc1cc(/N=N/c2cc(S(=O)(=O)O)c(C)cc2C)c(N)cc1O` [Ischemin/MS120, 5-(2-amino-4-hydroxy-5-methylphenylazo)-2,4-dimethylbenzenesulfonic acid], the Toxicity in cardiomyocytes (cardiomyocytes; ischemin alone) is reported as “no toxicity”, the “Inhibition of doxorubicin-induced apoptosis (TUNEL)” value (cardiomyocytes; neonatal rat cardiomyocytes, doxorubicin 24 hours) is reported as “effectively inhibit” and the “Direct inhibition of lysine acetyltransferase activity of CBP/p300” value (CBP/p300) is reported as “ruled out”. For the same molecule, the “Toxicity to U20S cells” value (U20S cells; 50 μM) was “not toxic”, the “Prevention of doxorubicin-induced cell cycle arrest (decrease of BRDU incorporation)” value (U20S cells; compound 50 μM, doxorubicin 5 μM, U20S cells) was “almost completely prevented; also recorded: prevents a doxorubicin-induced decrease of BRDU incorporation” and the “Selectivity for the CBP BRD over other human BRDs” value (CBP BRD) was “up to five-fold selectivity”. The “Doxorubicin induced p53 activation” value (p53 [1]) was “able to inhibit”, the “H2AX phosphorylation at Ser139” value (p53 [1]) was “did not alter” and the “Level or functional phosphorylation state of ATM and CHK1” value (p53 [2]; U20S cells, doxorubicin) was “did not affect”. The “Expression of p53 target genes p21, PUMA and 14-3-3s induced by doxorubicin” value (p53 [2]; [3]) was “significantly decreased”, the “Levels of p53 protein, p53S15p and p53K382ac induced by doxorubicin” value (p53 [2]; [3]) was “marked reduction” and the “H3 acetylation at Lys9” value (p53 [2]; [4]) was “decrease”. The “Histone H3 phosphorylation at Ser10” value (p53 [2]; [4]) was “increase”.
